Data on 25 compounds can be found in patent publication US20260042755A1, “GPR6 INVERSE AGONISTS” (MapLight Therapeutics, Inc., priority 2022, published 2026).

In one test the target is T1, GPR6 (Homo sapiens, UniProt P46095).
T1 construct: expressed in transfected cells; host or cells: CHO cells
Briefly: GPR6 antagonist functional cAMP assay (LANCE Ultra cAMP TR-FRET, CHO cells stably expressing GPR6). It is filed as cell-based. On the procedure: (§1) Example 56. GPR6 and GPR3 Antagonist Functional cAMP Assay
(§2) CHO cells stably expressing GPR6 or GPR3 receptors were dissociated from cell culture flasks and incubated for 2 h at 37° C. in a 10 cm dish in a humidified incubator. Cells were dissociated, counted to have 1e6 cells/mL (4.5e6 cells needed/384-well plate), washed once in starved media, than in D-PBS and finally suspended in assay buffer (Krebs-Ringer Bicarbonate Buffer with 1800 mg/L glucose, without calcium chloride and sodium bicarbonate (Sigma) in the presence of 0.1% BSA and 150 μM of Ro 20-1724 Phosphodiesterase inhibitor).
(§3) Cells in suspension from above were plated in 384-well white Optiplate (PerkinElmer) at 10,000 cells/well/10 μl, briefly centrifuged prior direct addition of compounds ([…]) in 10 mM DMSO using a Tecan D300e Digital Dispenser, final DMSO in each well was normalized to 0.1%. Cells were incubated in the presence of compounds for 45 min at 37° C. in a humidified incubator.
(§4) To measure cAMP levels, LANCE® Ultra cAMP assay (Perkin Elmer), a homogeneous time-resolved fluorescence resonance energy transfer (TR-FRET) immunoassay was used following manufacturer's recommendations. Plates were shaken for 1 h at room temperature before reading on a Tecan InfiniteF200Pro multi-mode plate reader using standard FRET settings (Excitation 340 nm, Emission at 615 nm). FRET values were reported as readings obtained at 665 nm. Data were normalized to DMSO (0.1%) and reference compounds (100%) and fit to a 4-parameter logistical fit to generate antagonist IC50s.
In general terms: Changes in cAMP serve as a functional read-out for many G protein-coupled receptors.

The target in the next test is T2, GPR3 (Homo sapiens, UniProt P46089).
T2 construct: expressed in transfected cells; host or cells: CHO cells
T2 sequence (P46089 whole entry, species assumed): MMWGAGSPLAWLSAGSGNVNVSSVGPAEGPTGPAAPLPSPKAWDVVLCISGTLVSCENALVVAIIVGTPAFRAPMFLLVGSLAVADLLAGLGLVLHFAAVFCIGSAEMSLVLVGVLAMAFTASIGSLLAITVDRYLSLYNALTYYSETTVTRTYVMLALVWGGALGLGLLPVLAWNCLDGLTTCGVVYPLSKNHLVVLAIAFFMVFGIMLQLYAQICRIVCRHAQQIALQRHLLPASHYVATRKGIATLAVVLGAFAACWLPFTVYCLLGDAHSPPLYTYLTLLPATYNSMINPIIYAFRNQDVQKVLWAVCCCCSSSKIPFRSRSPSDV
Briefly: GPR3 antagonist functional cAMP assay (LANCE Ultra cAMP TR-FRET, CHO cells stably expressing GPR3). Format: cell-based. The procedure: as §1, §2, §3, §4

Where [1] appears, read: CHO cells stably expressing GPR6, cAMP assay (Example 24).
Where [2] appears, read: CHO cells stably expressing GPR3, cAMP assay (Example 24).
Where [3] appears, read: procedure as described in Example 24.
Setting [4] is: CHO cells stably expressing GPR6, cAMP assay.
The mark [5] stands for this setting: CHO cells stably expressing GPR3, cAMP assay.

T1 sequence (P46095 whole entry): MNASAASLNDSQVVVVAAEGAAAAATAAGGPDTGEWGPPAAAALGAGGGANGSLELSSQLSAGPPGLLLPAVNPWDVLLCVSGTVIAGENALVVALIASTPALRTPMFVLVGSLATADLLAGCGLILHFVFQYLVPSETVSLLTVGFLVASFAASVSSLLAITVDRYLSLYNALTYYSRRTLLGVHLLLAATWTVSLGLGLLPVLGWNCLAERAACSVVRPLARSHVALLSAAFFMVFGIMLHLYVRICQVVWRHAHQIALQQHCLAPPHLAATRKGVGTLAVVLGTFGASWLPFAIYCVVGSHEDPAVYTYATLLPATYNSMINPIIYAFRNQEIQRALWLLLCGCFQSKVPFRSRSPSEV

By IC50 is commonly meant the concentration that gives 50% inhibition. `O=C(C1CNC1)N1CCc2nc(N3CCC(Oc4ccc(F)cc4F)CC3)c(-c3cn[nH]c3)nc2C1` [Compound 153, 1-[6-(azetidine-3-carbonyl)-3-(1H-pyrazol-4-yl)-5H,6H,7H,8H-pyrido[3,4-b]pyrazin-2-yl]-4-(2,4-difluorophenoxy)piperidine]: the IC50 at GPR6 (setting [1]) and against GPR3 (setting [2]) was 1000 to 30000 nM each time.

Consider `CC(=O)N1CCc2nc(N3CCC(Oc4ccc(F)cc4F)CC3)c(-c3cccc(C#N)n3)nc2C1` [Compound 2, 6-{6-acetyl-2-[4-(2,4-difluorophenoxy)piperidin-1-yl]-5H,6H,7H,8H-pyrido[3,4-b]pyrazin-3-yl}pyridine-2-carbonitrile], for which the IC50 lay within 100 to 1000 nM at GPR6 (setting [3]) and 1000 to 30000 nM against GPR3 (setting [3]).

Turning to `Cn1cc(-c2nc3cnc(C4CNC(=O)O4)cc3nc2N2CCC(Oc3ccc(F)cc3F)CC2)cn1` (stereo not shown) [Compound 371, 5-(2-(4-(2,4-difluorophenoxy)piperidin-1-yl)-3-(1-methyl-1H-pyrazol-4-yl)pyrido[3,4-b]pyrazin-7-yl)oxazolidin-2-one], the IC50 against GPR6 (procedure of Example 24) was in the range of 100 to 1000 nM; against GPR3 (procedure of Example 24) it was 1000 to 30000 nM.

For the compound `OCCN1CCc2nc(N3CCC(Oc4ccc(F)cc4F)CC3)c(-c3cn[nH]c3)nc2C1` [Compound 141, 2-{2-[4-(2,4-difluorophenoxy)piperidin-1-yl]-3-(1H-pyrazol-4-yl)-5H,6H,7H,8H-pyrido[3,4-b]pyrazin-6-yl}ethan-1-ol], the IC50 against GPR6 (setting [1]) and at GPR3 (setting [2]) was 1000 to 30000 nM throughout.

In the case of `Cn1cc(-c2nc3cn(C)c(=O)cc3nc2N2CCC(Oc3ccc(F)cc3F)CC2)cn1` [Compound 447, 2-[4-(2,4-difluorophenoxy)piperidin-1-yl]-6-methyl-3-(1-methyl-1H-pyrazol-4-yl)-6H,7H-pyrido[3,4-b]pyrazin-7-one], the IC50 on GPR6 (setting [1]) and on GPR3 (setting [2]) was 1000 to 30000 nM in each case.

Regarding `CC(=O)N1CCc2nc(N3CCN(Cc4ccccc4C)CC3)c(-c3cnn(C)c3)nc2C1` [Compound 510, 1-[3-(1-methyl-4-pyrazolyl)-2-{4-[(o-tolyl)methyl]-1-piperazinyl}-5,6,7,8-tetrahydro-1,4,6-triaza-6-naphthyl]-1-ethanone], the IC50 against GPR6 (setting [4]) and on GPR3 (setting [5]) was 1000 to 30000 nM each time.

For the compound `CC(=O)N1Cc2nc(-c3cnn(C)c3)c(N3CCC(Oc4ccc(F)cc4F)CC3)nc2CC1CO` (stereo not shown) [Compound 490, 1-{2-[4-(2,4-difluorophenoxy)piperidin-1-yl]-7-(hydroxymethyl)-3-(1-methyl-1H-pyrazol-4-yl)-5H,6H,7H,8H-pyrido[3,4-b]pyrazin-6-yl}ethan-1-one], the IC50 on GPR6 (setting [4]) was in the range of 100 to 1000 nM; on GPR3 (setting [5]), 1000 to 30000 nM.

Turning to `CC(=O)N1CCc2nc(N3CCC(Oc4ccc(F)cc4F)CC3)c(-c3cccc(-c4cn[nH]c4)n3)nc2C1` [Compound 166, 1-{2-[4-(2,4-difluorophenoxy)piperidin-1-yl]-3-[6-(1H-pyrazol-4-yl)pyridin-2-yl]-5H,6H,7H,8H-pyrido[3,4-b]pyrazin-6-yl}ethan-1-one], the IC50 was 100 to 1000 nM at GPR6 (setting [1]) and 1000 to 30000 nM against GPR3 (setting [2]).

In the case of `CC(=O)N1CCc2nc(N3CCC(Oc4ccc(F)cc4F)CC3)c(-c3cnn([C@H](C)C#N)c3)nc2C1` (single isomer, unassigned) [Compound 272], the IC50 on GPR6 (procedure of Example 24) was in the range of 100 to 1000 nM; on GPR3 (procedure of Example 24), 1000 to 30000 nM.

In the case of `COc1cncc(-c2nc3c(nc2N2CCC(Oc4ccc(F)cc4F)CC2)CCN(C(C)=O)C3)n1` [Compound 87, 1-{2-[4-(2,4-difluorophenoxy)piperidin-1-yl]-3-(6-methoxypyrazin-2-yl)-5H,6H,7H,8H-pyrido[3,4-b]pyrazin-6-yl}ethan-1-one], the IC50 on GPR6 (setting [1]) was 100 to 1000 nM; on GPR3 (setting [2]), 1000 to 30000 nM.

For the compound `CC(=O)N1CCc2nc(N3CCC(Oc4ccc(F)cc4F)CC3)c(-c3cnc[nH]3)nc2C1` [Compound 84, 1-{2-[4-(2,4-difluorophenoxy)piperidin-1-yl]-3-(1H-imidazol-5-yl)-5H,6H,7H,8H-pyrido[3,4-b]pyrazin-6-yl}ethan-1-one], the IC50 against GPR6 (setting [1]) and against GPR3 (setting [2]) was 1000 to 30000 nM throughout.

In the case of `CC(=O)N1CCc2nc(N3CCN(Cc4ccc(Cl)cc4F)CC3)c(-c3cnn(C)c3)nc2C1` [Compound 348, 1-(2-{4-[(4-chloro-2-fluorophenyl)methyl]piperazin-1-yl}-3-(1-methyl-1H-pyrazol-4-yl)-5H,6H,7H,8H-pyrido[3,4-b]pyrazin-6-yl)ethan-1-one], the figures for the IC50 on GPR6 (procedure of Example 24) and on GPR3 (procedure of Example 24) were 100 to 1000 nM and 1000 to 30000 nM, respectively.

For “1-[3-(1-methyl-4-pyrazolyl)-2-{4- [(o-nitrophenyl)methyl]-1- piperazinyl}-5,6,7,8-tetrahydro- 1,4,6-triaza-6-naphthyl]-1- ethanone [Compound 527]”, the IC50 fell in the range of 100 to 1000 nM against GPR6 (setting [4]) and 1000 to 30000 nM on GPR3 (setting [5]).

In the case of `CC(C)(O)C(C)(O)c1cc2nc(-c3cnn(C(F)F)c3)c(N3CCN(Cc4ccccc4F)CC3)nc2cn1` (stereo not shown) [Compound 684, 2-{2-[1-(difluoromethyl)-4-pyrazolyl]-3-{4-[(o-fluorophenyl)methyl]-1-piperazinyl}-1,4,6-triaza-7-naphthyl}-3-methyl-2,3-butanediol], the values for the IC50 at GPR6 (procedure of Example 24) and at GPR3 (procedure of Example 24) were 100 to 1000 nM and 1000 to 30000 nM, respectively.

On to “1-(3-{6-acetyl-2-[4-(2,4- difluorophenoxy)piperidin- 1-yl]-5H,6H,7H,8H- pyrido[3,4-b]pyrazin-3- yl}-4H,5H,6H,7H- pyrazolo[1,5-a]pyrazin-5- yl)ethan-1-one [Compound 106]”, for which the IC50 at GPR6 (setting [1]) and against GPR3 (setting [2]) was 1000 to 30000 nM in each case.

With `COc1ccc(-c2nc3c(nc2N2CCC(Oc4ccc(F)cc4F)CC2)CCN(C(C)=O)C3)nc1` [Compound 10], the values for the IC50 against GPR6 (setting [3]) and against GPR3 (setting [3]) were 100 to 1000 nM and 1000 to 30000 nM, respectively.

For `CC(=O)N1CCc2nc(N3CCCC(Oc4cccc(F)c4)C3)c(-c3cnn(C)c3)nc2C1` (stereo not shown) [Compound 337, 1-{2-[3-(3-fluorophenoxy)piperidin-1-yl]-3-(1-methyl-1H-pyrazol-4-yl)-5H,6H,7H,8H-pyrido[3,4-b]pyrazin-6-yl}ethan-1-one], the IC50 was no less than 30000 nM at GPR6 (procedure of Example 24) and 1000 to 30000 nM on GPR3 (procedure of Example 24).

In the case of `CC(C)(O)[C@](C)(O)c1cc2nc(N3CCN(Cc4ccccc4F)CC3)c(-c3cnn(CF)c3)nc2cn1` (single isomer, unassigned) [Compound 675], the IC50 against GPR6 (procedure of Example 24) fell in the range of 100 to 1000 nM; on GPR3 (procedure of Example 24) it was 1000 to 30000 nM.

On to `CC(=O)N1CCc2nc(N3CCN(Cc4cc(F)ccc4F)CC3)c(-c3cnn(C)c3)nc2C1` [Compound 505, 1-(2-{4-[(2,5-difluorophenyl)methyl]-1-piperazinyl}-3-(1-methyl-4-pyrazolyl)-5,6,7,8-tetrahydro-1,4,6-triaza-6-naphthyl)-1-ethanone], for which the figures for the 50% inhibitory concentration (IC50) against GPR6 (setting [4]) and on GPR3 (setting [5]) were 100 to 1000 nM and 1000 to 30000 nM, respectively.

On to `CC(=O)N1CCc2nc(N3CCC(Oc4ccc(F)cc4F)CC3)c(C3=CCOC3)nc2C1` [Compound 306, 1-{2-[4-(2,4-difluorophenoxy)piperidin-1-yl]-3-(2,5-dihydrofuran-3-yl)-5H,6H,7H,8H-pyrido[3,4-b]pyrazin-6-yl}ethan-1-one], for which the IC50 was 100 to 1000 nM against GPR6 (procedure of Example 24) and 1000 to 30000 nM at GPR3 (procedure of Example 24).

On to `CC(=O)N1CCc2nc(N3CCC(Oc4ccc(F)c(F)c4)CC3)c(-c3cnn(C)c3)nc2C1` [Compound 453, 1-{2-[4-(3,4-difluorophenoxy)piperidin-1-yl]-3-(1-methyl-1H-pyrazol-4-yl)-5H,6H,7H,8H-pyrido[3,4-b]pyrazin-6-yl}ethan-1-one], for which the half-maximal inhibitory concentration (IC50) against GPR6 (setting [1]) and against GPR3 (setting [2]) was 1000 to 30000 nM each time.

On to `CC(C)(O)C(O)c1cc2nc(N3CCN(Cc4ccccc4F)CC3)c(-c3cnn(CF)c3)nc2cn1` (stereo not shown) [Compound 606, 1-{3-[1-(fluoromethyl)-4-pyrazolyl]-2-{4-[(o-fluorophenyl)methyl]-1-piperazinyl}-1,4,6-triaza-7-naphthyl}-2-methyl-1,2-propanediol], for which the results for the IC50 on GPR6 (setting [4]) and on GPR3 (setting [5]) were 100 to 1000 nM and 1000 to 30000 nM, respectively.

Take `COc1cc(F)c(OC2CCN(c3nc4c(nc3-c3cnn(C)c3)CN(C(C)=O)CC4)CC2)cc1Cl` [Compound 503, 1-{2-[4-(5-chloro-2-fluoro-4-methoxyphenoxy)-1-piperidyl]-3-(1-methyl-4-pyrazolyl)-5,6,7,8-tetrahydro-1,4,6-triaza-6-naphthyl}-1-ethanone]: the IC50 on GPR6 (setting [4]) and at GPR3 (setting [5]) was 1000 to 30000 nM throughout.

On to `O=c1cccc(-c2nc3ccncc3nc2N2CCC(Oc3ccc(F)cc3F)CC2)[nH]1` [Compound 99, 6-{3-[4-(2,4-difluorophenoxy)piperidin-1-yl]pyrido[3,4-b]pyrazin-2-yl}-1,2-dihydropyridin-2-one], for which the IC50 at GPR6 (setting [1]) and on GPR3 (setting [2]) was 1000 to 30000 nM throughout.

The compound `COc1nc(-c2nc3c(nc2N2CCC(Oc4ccc(F)cc4F)CC2)CCN(C(C)=O)C3)ccc1F` [Compound 83, 1-{2-[4-(2,4-difluorophenoxy)piperidin-1-yl]-3-(5-fluoro-6-methoxypyridin-2-yl)-5H,6H,7H,8H-pyrido[3,4-b]pyrazin-6-yl}ethan-1-one] gave an IC50 against GPR3 (setting [2]) of 1000 to 30000 nM.
